{"source": "patent US20240122179A1", "about": "“AUXINIC HERBICIDES AND METHODS OF USE THEREOF” (CORTEVA AGRISCIENCE LLC, priority 2021, published 2024)", "key": {"[1]": {"test": "Volatility of compounds measured by thermogravimetric analysis (TGA), rate of weight loss", "assay_type": "physicochemical", "conditions": "estimates of volatility", "description": "Briefly, the rate of weight loss measured in units of […]g/min can be used to determine vapor pressure as shown by the simplified equation: wherein, k is the intrinsic volatility and A is the surface area, Referring now to FIG. 2. A graph of weight loss as function of time for solid samples produces a linear curve; the slope of the curve is the rate of weight loss. When this method is used to measure the volatility of aqueous salt concentrates or liquid concentrates, the water or acetone present in the sample volatilizes before the sample of interest. The first linear loss region of the curve is the loss of water or acetone and the second linear region is characteristic of the sample of interest. In order to illustrate the difference in volatility between some of the compounds disclosed herein and the widely used herbicide dicamba, data from both the compounds and dicamba are presented Table 3 and in FIG. 1."}, "Amaranthus rudis (AMATA)": {"test_system": "Amaranthus rudis (AMATA)", "test": "Postemergence herbicide evaluation, percent reduction in plant size vs untreated control, 21 days after treatment", "assay_type": "in vivo, Amaranthus rudis (tall water hemp)", "conditions": "Amaranthus tuberculatus, post-emergence, 504 h, AMATA, postemergence, read-out: Control/Injury", "procedure,_shortened": "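Greenhouse-grown tall waterhemp (25-28° C, 16 h light) at the 2-8 leaf stage, treated by track sprayer at 187 L/ha with compound at 140 or 280 g ae/ha in acetone/DMSO-based spray solution with crop oil and surfactant. 3-4 replicates per treatment, randomized complete block; plant size reduction versus untreated control measured 21 days after treatment.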"}, "[2]": {"test_system": "Ambrosia artemisiifolia (AMBEL)", "test": "Postemergence herbicide evaluation, percent reduction in plant size vs untreated control, 21 days after treatment", "assay_type": "in vivo, Ambrosia artemisiifolia (common ragweed)", "conditions": "post-emergence, 504 h, AMBEL, postemergence, read-out: Control/Injury", "procedure,_shortened": "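Greenhouse-grown plants (25–28 °C, 16 h light) were sprayed postemergence at the 2–8 leaf stage with 140 or 280 g ae/ha in acetone/DMSO-based spray solution with crop oil and surfactant, at 187 L/ha by track sprayer. There were 3–4 replicates. Plant size was measured 21 days after treatment versus untreated plants.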"}, "Kochia scoparia (KCHSC)": {"test_system": "Kochia scoparia (KCHSC)", "test": "Postemergence herbicide evaluation, percent reduction in plant size vs untreated control, 21 days after treatment", "assay_type": "in vivo", "conditions": "Bassia scoparia, post-emergence, 504 h, KCHSC, postemergence, percent reduction vs untreated control, 21 days after treatment, read-out: Control/Injury", "procedure,_shortened": "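Greenhouse-grown plants (25-28 °C, 16 h light) at the 2 to 8 leaf stage were track-sprayed postemergence at 140 or 280 g ae/ha in acetone/DMSO-based spray solution with crop oil and surfactant, at 187 L/ha, in 3-4 randomized replicates.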"}, "[3]": {"test_system": "Amaranthus palmeri (AMAPA)", "test": "Postemergence herbicide evaluation, percent reduction in plant size vs untreated control, 21 days after treatment", "assay_type": "in vivo, Amaranthus palmeri (Palmer amaranth)", "conditions": "post-emergence, 504 h, R-AMAPA, postemergence, percent reduction vs untreated control, 21 days after treatment, read-out: Control/Injury", "procedure,_shortened": "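Greenhouse-grown Palmer amaranth (25 to 28° C, 16 h light) sprayed postemergence at the 2 to 8 leaf stage with 140 or 280 g ae/ha in acetone/DMSO-based solution containing crop oil concentrate, 187 L/ha by track sprayer. Three to four replicates; plant size measured 21 days after treatment as percent reduction versus untreated control.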"}, "[4]": {"test_system": "Conyza canadensis (L.) (ERICA)", "test": "Postemergence herbicide evaluation, percent reduction in plant size vs untreated control, 21 days after treatment", "assay_type": "in vivo, Conyza canadensis (L.) (Horseweed)", "conditions": "Erigeron canadensis, post-emergence, 504 h, ERICA, postemergence, percent reduction vs untreated control, 21 days after treatment, read-out: Control/Injury", "procedure,_shortened": "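Horseshoe-weed (horseweed) seedlings at 2 to 8 leaf stage in greenhouse (25-28° C, 16 h light), sprayed postemergence at 140 or 280 g ae/ha in acetone/DMSO-based spray solution, 187 L/ha track-sprayer. Randomized complete block, 3-4 replicates; plant size measured 21 days after treatment as percent reduction vs untreated controls.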"}, "Glycine max": {"test_system": "Glycine max", "test": "whole plant or invertebrate", "conditions": "Glycine max, post-emergence, 504 h, read-out: Control/Injury", "procedure,_shortened": "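Greenhouse soybean (25–28 °C, 16 h light) sprayed post-emergence at 2–8 leaf stage with 140 or 280 g ae/ha in acetone/DMSO-based spray solution with crop oil concentrate, 187 L/ha by track sprayer; 3–4 replicates, randomized blocks. Plant size reduction versus untreated control measured 21 days after treatment.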"}}}
{"smiles": "COc1c(Cl)ccc(Cl)c1C(=O)O/N=C/c1ccco1", "note": "[Compound A-88]", "values": [{"measurement": "Volatility", "setting": "[1]", "value": 0.35, "unit": "ng/min"}, {"measurement": "pest or weed control at 140 g/ha", "setting": "Amaranthus rudis (AMATA); rate 140 g ae/ha", "value": 72, "unit": "%"}, {"measurement": "pest or weed control at 280 g/ha", "setting": "Amaranthus rudis (AMATA); rate 280 g ae/ha", "value": 80, "unit": "%"}, {"measurement": "pest or weed control at 140 g/ha", "setting": "[2]; rate 140 g ae/ha", "value": 70, "unit": "%"}, {"measurement": "pest or weed control at 280 g/ha", "setting": "[2]; rate 280 g ae/ha", "value": 82, "unit": "%"}, {"measurement": "pest or weed control at 140 g/ha", "setting": "Kochia scoparia (KCHSC); rate 140 g ae/ha", "value": 87, "unit": "%"}, {"measurement": "pest or weed control at 280 g/ha", "setting": "Kochia scoparia (KCHSC); rate 280 g ae/ha", "value": 94, "unit": "%"}, {"measurement": "pest or weed control at 140 g/ha", "setting": "[3]; rate 140 g ae/ha", "value": 67, "unit": "%"}, {"measurement": "pest or weed control at 280 g/ha", "setting": "[3]; rate 280 g ae/ha", "value": 68, "unit": "%"}, {"measurement": "pest or weed control at 140 g/ha", "setting": "[4]; rate 140 g ae/ha", "value": 75, "unit": "%"}, {"measurement": "pest or weed control at 280 g/ha", "setting": "[4]; rate 280 g ae/ha", "value": 94, "unit": "%"}, {"measurement": "plant injury at 140 g/ha", "setting": "Glycine max", "value": 10, "unit": "%"}, {"measurement": "plant injury at 280 g/ha", "setting": "Glycine max", "value": 3, "unit": "%"}]}
